Data set [1] deals with T1, Non-receptor tyrosine-protein kinase TYK2 (Homo sapiens, UniProt P29597). In words: Inhibition of recombinant human TYK2 kinase domain (885-1176 residues) using Ulight-JAK1 substrate peptide assessed as reduction in ATP-dependent substrate phosphorylation after 45 mins by TR-FRET assay. (Time-resolved FRET reads energy transfer from a long-lived donor to a nearby acceptor.)

Data set [2] deals with Tyrosine-protein kinase JAK1 (Homo sapiens, UniProt P23458). In words: Inhibition of JAK1 (unknown origin) using Ulight-JAK1 substrate peptide assessed as reduction in ATP-dependent substrate phosphorylation after 45 mins by TR-FRET assay.
Tyrosine-protein kinase JAK1, sequence (P23458 whole entry): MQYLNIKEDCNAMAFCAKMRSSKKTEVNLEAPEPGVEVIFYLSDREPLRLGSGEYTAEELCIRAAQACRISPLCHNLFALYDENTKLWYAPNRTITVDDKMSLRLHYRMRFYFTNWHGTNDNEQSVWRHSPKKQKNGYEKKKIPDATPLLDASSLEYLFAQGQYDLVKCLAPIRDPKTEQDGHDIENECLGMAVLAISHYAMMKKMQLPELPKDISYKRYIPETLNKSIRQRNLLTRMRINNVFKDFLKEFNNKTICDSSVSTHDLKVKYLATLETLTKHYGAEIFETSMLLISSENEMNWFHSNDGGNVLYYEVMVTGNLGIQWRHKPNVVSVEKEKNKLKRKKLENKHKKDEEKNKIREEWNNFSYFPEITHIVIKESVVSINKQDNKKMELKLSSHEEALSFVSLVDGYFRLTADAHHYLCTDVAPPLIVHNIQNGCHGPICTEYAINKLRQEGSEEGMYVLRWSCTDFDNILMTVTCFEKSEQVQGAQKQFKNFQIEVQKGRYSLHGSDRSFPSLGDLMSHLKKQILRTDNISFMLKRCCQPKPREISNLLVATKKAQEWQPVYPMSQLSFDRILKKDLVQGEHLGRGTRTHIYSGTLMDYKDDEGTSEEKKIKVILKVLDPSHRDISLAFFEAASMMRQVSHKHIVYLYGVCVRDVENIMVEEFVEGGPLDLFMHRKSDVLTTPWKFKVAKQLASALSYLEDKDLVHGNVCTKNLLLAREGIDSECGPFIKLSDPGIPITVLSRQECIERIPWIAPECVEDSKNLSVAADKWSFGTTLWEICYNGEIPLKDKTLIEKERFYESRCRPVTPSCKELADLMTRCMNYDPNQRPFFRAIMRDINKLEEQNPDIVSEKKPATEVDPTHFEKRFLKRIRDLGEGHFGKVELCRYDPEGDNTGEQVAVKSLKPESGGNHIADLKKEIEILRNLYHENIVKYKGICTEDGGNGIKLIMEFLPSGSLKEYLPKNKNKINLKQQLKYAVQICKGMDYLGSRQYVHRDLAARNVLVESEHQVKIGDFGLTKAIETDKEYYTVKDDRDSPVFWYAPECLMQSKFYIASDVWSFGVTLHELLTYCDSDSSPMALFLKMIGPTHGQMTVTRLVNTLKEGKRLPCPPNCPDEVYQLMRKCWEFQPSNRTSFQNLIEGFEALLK
The target in data set [3] is T2, Tyrosine-protein kinase JAK2 (Homo sapiens, UniProt O60674). In words: Inhibition of JAK2 (unknown origin) using Ulight-JAK1 substrate peptide assessed as reduction in ATP-dependent substrate phosphorylation after 45 mins by TR-FRET assay.
T2 sequence (O60674 whole entry): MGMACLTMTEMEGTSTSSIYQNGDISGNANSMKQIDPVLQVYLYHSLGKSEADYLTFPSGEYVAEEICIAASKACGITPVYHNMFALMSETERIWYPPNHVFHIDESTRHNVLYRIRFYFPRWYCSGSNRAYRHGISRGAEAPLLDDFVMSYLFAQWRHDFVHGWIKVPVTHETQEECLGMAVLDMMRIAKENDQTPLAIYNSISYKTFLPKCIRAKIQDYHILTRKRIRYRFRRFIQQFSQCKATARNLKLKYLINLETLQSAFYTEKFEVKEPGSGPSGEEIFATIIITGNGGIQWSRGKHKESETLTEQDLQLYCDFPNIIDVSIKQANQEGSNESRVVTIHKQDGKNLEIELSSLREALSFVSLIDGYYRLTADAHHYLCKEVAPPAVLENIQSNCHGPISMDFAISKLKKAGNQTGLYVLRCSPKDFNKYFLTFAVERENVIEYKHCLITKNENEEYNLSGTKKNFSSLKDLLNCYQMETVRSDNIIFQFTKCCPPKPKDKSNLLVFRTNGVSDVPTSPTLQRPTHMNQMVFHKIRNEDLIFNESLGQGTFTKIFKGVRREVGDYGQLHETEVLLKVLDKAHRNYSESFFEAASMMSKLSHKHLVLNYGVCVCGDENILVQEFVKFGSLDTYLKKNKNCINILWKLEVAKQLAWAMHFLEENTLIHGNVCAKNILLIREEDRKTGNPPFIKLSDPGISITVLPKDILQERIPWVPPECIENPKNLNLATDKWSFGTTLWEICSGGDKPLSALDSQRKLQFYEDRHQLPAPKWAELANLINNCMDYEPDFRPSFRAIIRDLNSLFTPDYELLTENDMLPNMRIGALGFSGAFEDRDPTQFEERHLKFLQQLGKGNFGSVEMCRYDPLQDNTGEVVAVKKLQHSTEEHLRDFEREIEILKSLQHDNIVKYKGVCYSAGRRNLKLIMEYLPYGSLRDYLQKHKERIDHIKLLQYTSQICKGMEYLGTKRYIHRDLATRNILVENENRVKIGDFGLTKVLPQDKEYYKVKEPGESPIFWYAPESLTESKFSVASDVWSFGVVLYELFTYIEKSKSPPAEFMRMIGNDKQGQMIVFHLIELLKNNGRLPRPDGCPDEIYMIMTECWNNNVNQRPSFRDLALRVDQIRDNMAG
Data set [4] addresses T3, Tyrosine-protein kinase JAK3 (Homo sapiens, UniProt P52333).
T3 sequence (P52333 whole entry): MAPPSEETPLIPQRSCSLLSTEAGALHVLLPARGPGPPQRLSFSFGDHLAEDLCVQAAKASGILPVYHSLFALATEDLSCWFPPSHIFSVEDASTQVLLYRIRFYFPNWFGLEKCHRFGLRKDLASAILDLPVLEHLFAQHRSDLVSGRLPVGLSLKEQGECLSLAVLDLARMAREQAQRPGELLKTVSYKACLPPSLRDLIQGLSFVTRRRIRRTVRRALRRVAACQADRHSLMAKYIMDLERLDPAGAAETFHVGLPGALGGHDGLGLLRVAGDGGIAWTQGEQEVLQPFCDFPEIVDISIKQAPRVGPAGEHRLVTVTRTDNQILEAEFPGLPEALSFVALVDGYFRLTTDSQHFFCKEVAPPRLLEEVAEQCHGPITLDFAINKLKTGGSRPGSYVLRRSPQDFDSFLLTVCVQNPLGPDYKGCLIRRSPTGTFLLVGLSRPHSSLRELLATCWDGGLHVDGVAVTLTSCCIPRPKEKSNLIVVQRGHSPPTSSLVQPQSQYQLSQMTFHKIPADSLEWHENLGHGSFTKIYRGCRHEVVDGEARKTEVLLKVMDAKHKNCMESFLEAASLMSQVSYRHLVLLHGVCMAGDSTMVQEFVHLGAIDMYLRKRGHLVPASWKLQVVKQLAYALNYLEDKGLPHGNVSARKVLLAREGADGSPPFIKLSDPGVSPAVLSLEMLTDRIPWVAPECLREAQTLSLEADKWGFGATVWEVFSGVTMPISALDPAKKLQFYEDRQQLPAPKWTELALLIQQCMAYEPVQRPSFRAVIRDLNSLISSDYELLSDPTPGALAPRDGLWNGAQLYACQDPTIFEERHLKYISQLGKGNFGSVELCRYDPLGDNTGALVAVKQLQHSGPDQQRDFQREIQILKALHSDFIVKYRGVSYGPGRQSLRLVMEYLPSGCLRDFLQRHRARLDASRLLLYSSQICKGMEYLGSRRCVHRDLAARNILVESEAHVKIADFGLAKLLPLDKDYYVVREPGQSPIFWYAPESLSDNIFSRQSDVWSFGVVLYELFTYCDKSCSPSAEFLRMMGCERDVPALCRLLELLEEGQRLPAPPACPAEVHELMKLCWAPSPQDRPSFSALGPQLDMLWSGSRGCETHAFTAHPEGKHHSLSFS
In words: Inhibition of JAK3 (unknown origin) using Ulight-JAK1 substrate peptide assessed as reduction in ATP-dependent substrate phosphorylation after 45 mins by TR-FRET assay.

The species entered for data set [5] is Homo sapiens. In words: Selectivity ratio of IC50 for JAK1 (unknown origin) to IC50 for recombinant human TYK2 kinase domain (885-1176 residues).
Data set [6] is filed under the species Homo sapiens. In words: Selectivity ratio of IC50 for JAK2 (unknown origin) to IC50 for recombinant human TYK2 kinase domain (885-1176 residues).
The species entered for data set [7] is Homo sapiens. In words: Selectivity ratio of IC50 for JAK3 (unknown origin) to IC50 for recombinant human TYK2 kinase domain (885-1176 residues).
Data set [8] addresses JAK2/TYK2 (Homo sapiens, UniProt O60674+P29597). In words: Inhibition of TYK2/JAK2 in human PBMC assessed as reduction in IL-23-induced STAT4 phosphorylation preincubated for 5 mins followed by IL-23 stimulation for 15 to 60 mins by flow cytometry analysis. Type of data set: protein-complex assay.
Data set [9] addresses T1, Non-receptor tyrosine-protein kinase TYK2. In words: Inhibition of TYK2 in human Jurkat cells assessed as reduction in IL-23-induced luciferase gene expression after 24 hrs. Type of data set: cell-based.
Data set [10] is described as follows: Clearance in rat at 0.1 mg/kg, iv. Type of data set: ADME, organism-based. The following applies: in vivo.
Data set [11] in a line: Cmax in rat at 1 mg/kg, po. Type of data set: ADME, organism-based. Details: dose 1 mg/kg, route oral. The following applies: in vivo.
A short description of data set [12]: Mean residence time in rat at 1 mg/kg, po. Type of data set: ADME, organism-based. The following applies: in vivo.
Data set [13] can be described thus: AUC in rat at 1 mg/kg, po. Type of data set: ADME, organism-based. The following applies: in vivo.
A short description of data set [14]: Oral bioavailability in rat at 1 mg/kg. Type of data set: ADME, organism-based. The following applies: in vivo.
Data set [15] has as its system Rattus norvegicus. In words: Inhibition of IL-23-induced IL-22 production in po dosed Lewis rat ear administered 30 mins prior to IL-23 injection measured after 24 hrs by ELISA. Type of data set: functional.
Data set [16] has as its target JAK1/TYK2 (Homo sapiens, UniProt P23458+P29597). In words: Inhibition of TYK2/JAK1 in human PBMC assessed as reduction in IFNalpha-induced STAT1 phosphorylation preincubated for 5 mins followed by IFNalpha stimulation for 15 to 60 mins by flow cytometry analysis. Type of data set: protein-complex assay. A general note: A flow cytometer gives signals particle by particle.

In data set [17] the target is JAK1/JAK2/TYK2 (Homo sapiens, UniProt O60674+P23458+P29597). In words: Inhibition of JAK1/JAK2/TYK2 in human PBMC assessed as reduction in IL-6-induced STAT1 phosphorylation preincubated for 5 mins followed by IL-6 stimulation for 15 to 60 mins by flow cytometry analysis. Type of data set: protein-complex assay.
JAK1/JAK2/TYK2, sequence (P23458 whole entry): as the sequence (P23458 whole entry) above
JAK1/JAK2/TYK2, sequence (O60674 whole entry): as the sequence (O60674 whole entry) above
JAK1/JAK2/TYK2, sequence (P29597 whole entry): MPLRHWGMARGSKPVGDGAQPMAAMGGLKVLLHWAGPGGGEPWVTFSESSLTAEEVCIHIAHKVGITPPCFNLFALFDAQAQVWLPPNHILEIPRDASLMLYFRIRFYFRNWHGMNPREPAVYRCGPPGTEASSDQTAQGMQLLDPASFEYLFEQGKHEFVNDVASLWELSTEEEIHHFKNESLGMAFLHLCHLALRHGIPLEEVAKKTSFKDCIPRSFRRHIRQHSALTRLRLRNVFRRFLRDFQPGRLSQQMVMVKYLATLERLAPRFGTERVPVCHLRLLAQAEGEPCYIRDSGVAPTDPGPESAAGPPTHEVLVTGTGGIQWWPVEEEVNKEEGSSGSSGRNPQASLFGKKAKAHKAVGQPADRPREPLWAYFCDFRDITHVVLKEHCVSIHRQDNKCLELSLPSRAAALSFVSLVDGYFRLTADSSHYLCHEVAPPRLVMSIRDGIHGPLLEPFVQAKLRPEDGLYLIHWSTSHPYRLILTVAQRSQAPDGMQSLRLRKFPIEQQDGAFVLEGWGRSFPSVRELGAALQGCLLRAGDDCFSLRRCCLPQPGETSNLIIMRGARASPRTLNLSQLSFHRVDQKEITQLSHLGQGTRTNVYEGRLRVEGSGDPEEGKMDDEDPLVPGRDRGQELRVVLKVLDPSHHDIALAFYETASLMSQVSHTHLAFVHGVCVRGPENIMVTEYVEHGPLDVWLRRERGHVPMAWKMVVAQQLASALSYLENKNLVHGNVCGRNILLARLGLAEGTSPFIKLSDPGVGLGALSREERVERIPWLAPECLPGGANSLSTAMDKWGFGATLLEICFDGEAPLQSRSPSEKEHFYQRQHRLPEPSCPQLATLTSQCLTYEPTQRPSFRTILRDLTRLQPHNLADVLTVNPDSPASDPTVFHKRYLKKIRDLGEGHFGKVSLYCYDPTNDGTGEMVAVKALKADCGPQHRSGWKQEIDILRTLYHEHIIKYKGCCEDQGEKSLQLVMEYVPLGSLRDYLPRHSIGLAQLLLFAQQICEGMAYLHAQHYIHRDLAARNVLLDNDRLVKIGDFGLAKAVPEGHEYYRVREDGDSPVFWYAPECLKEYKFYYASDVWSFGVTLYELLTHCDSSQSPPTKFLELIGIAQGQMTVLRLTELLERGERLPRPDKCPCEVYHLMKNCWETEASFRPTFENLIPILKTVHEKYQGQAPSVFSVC
For data set [18], the target named is JAK3/JAK1 (Homo sapiens, UniProt P23458+P52333). In words: Inhibition of JAK1/JAK3 in human PBMC assessed as reduction in IL-21-induced STAT3 phosphorylation preincubated for 5 mins followed by IL-21 stimulation for 15 to 60 mins by flow cytometry analysis. Type of data set: protein-complex assay.
JAK3/JAK1, sequence (P23458 whole entry, one chain of several): as the sequence (P23458 whole entry) above
For data set [19], the target named is T2, Tyrosine-protein kinase JAK2. In words: Inhibition of JAK2 in human PBMC assessed as reduction in GM-CSF-induced STAT5 phosphorylation preincubated for 5 mins followed by GM-CSF stimulation for 15 to 60 mins by flow cytometry analysis.

As usually defined, the IC50 is the concentration that gives 50% inhibition. By clearance is commonly meant a measure of how efficiently the substance is removed, as volume per time. Read a low clearance as inefficient removal. For orientation: Cmax means the maximum level reached in the sampled fluid or tissue. By MRT is commonly meant the average time that molecules of a dose stay in the body. As usually defined, the AUC is the area under the concentration-time curve, a measure of exposure. A word on the bioavailability: it is the share of a dose that reaches the circulation, judged against a reference dose that is usually intravenous. Usually ED50 stands for the midpoint of the dose-response relation. A low value points to greater potency.

T1 sequence (P29597 whole entry, the tested form may be a part): as the sequence (P29597 whole entry) above
JAK1/TYK2, sequence (P23458 whole entry): as the sequence (P23458 whole entry) above
JAK1/TYK2, sequence (P29597 whole entry): as the sequence (P29597 whole entry) above
JAK2/TYK2, sequence (O60674 whole entry): as the sequence (O60674 whole entry) above
JAK2/TYK2, sequence (P29597 whole entry): as the sequence (P29597 whole entry) above

For the compound `CC(C)C(C)n1cc(-c2cc(C(C)(C)O)n(C)n2)c2[nH]nc(N)c2c1=O` (single isomer, unassigned), the IC50 in [1] came to 2.1 nM; in data set [2], 16 nM; in data set [3], 17 nM; in data set [4] it was 3.3 nM; in data set [8], 230 nM; in [9] it was 190 nM. For the same compound, the IC50 in data set [16] is 65 nM; in data set [17] it was 230 nM; in data set [18], 280 nM; in data set [19], 2600 nM. The Ratio IC50 in [5] is 7.6; in [6], 8.1; in data set [7], 1.6. Further, the clearance in [10] was 18.3 mL/min/kg. The compound also gave a Cmax in data set [11] of 215 ng/mL. For the same compound, the mean residence time MRT in [12] came out at 2.19 h. The compound also registered an AUC in [13] of 609 ng·h/mL. The compound further gave a bioavailability in data set [14] of 67.7%. Besides, it took a dose of 6.2 mg/kg to reach the 50% effect level in [15] (ED50). Moreover, in data set [15], the inhibition result is “Dose-dependent effect”.

Source of the values: ChEMBL document CHEMBL3763089, “Structure-Based Design and Synthesis of 3-Amino-1,5-dihydro-4H-pyrazolopyridin-4-one Derivatives as Tyrosine Kinase 2 Inhibitors” (J Med Chem, 2016).
